Experimental data reported in the supplement of paper PMC11061612.

Experiments:
Test in all cases: combination Emax (second highest fraction inhibited in the dose matrix, 72 h); higher = more inhibition; extreme values may be limits of the assay
[1] = system: 697 (B-Lymphoblastic Leukemia)
In short: (§1)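 Cell lines in DMEM/F12 or RPMI with 10% FBS were plated in 1536-well plates, held 24 hours at 37°C, 5% CO2, then given two-drug dose matrices for 72 hours (DMSO typically 0.2%). Viability was read by CellTiter-Glo 2.0 luminescence and scaled as inhibition from 0 (vehicle wells) to 1 (blank wells). Combination Emax is the second-highest inhibition in the matrix; Bliss excess is observed combination effect minus expected EA + EB − EA·EB, EA and EB being single-agent effects.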

[2] = system: C3A (Hepatocellular Carcinoma)
In short: as §1

CAL-78 (Chondrosarcoma) = system: CAL-78 (Chondrosarcoma)
In short: as §1

[3] = system: CFPAC-1 (Pancreatic Carcinoma)
In short: as §1

[4] = system: EM-2 (Chronic Myelogenous Leukemia)
In short: as §1

[5] = system: HCC2157 (Breast Carcinoma)
In short: as §1

IGR-1 (Melanoma) = system: IGR-1 (Melanoma)
In short: as §1

[6] = system: IHH-4 (Thyroid Gland Carcinoma)
In short: as §1

J82 (Bladder Carcinoma) = system: J82 (Bladder Carcinoma)
In short: as §1

[7] = system: JiyoyeP-2003 (Burkitt's Lymphoma)
In short: as §1

[8] = system: KARPAS-620 (Plasma Cell Myeloma)
In short: as §1

[9] = system: KATOIII (Gastric Carcinoma)
In short: as §1

[10] = system: NCI-H1694 (Small Cell Lung Carcinoma)
In short: as §1

RH-1 (Ewing's Sarcoma) = system: RH-1 (Ewing's Sarcoma)
In short: as §1

SK-N-FI (Neuroblastoma) = system: SK-N-FI (Neuroblastoma)
In short: as §1

SN12C (Kidney Carcinoma) = system: SN12C (Kidney Carcinoma)
In short: as §1

[11] = system: SNU-C5 (Colorectal Carcinoma)
In short: as §1

[12] = system: SW756 (Cervical Carcinoma)
In short: as §1

[13] = system: TGBC24TKB (Biliary Tract Carcinoma)
In short: as §1

[14] = system: U-266 (Plasma Cell Myeloma)
In short: as §1

SMILES	combination Emax [1]	combination Emax [2]	combination Emax (CAL-78 (Chondrosarcoma))	combination Emax [3]	combination Emax [4]	combination Emax [5]	combination Emax (IGR-1 (Melanoma))	combination Emax [6]	combination Emax (J82 (Bladder Carcinoma))	combination Emax [7]	combination Emax [8]	combination Emax [9]	combination Emax [10]	combination Emax (RH-1 (Ewing's Sarcoma))	combination Emax (SK-N-FI (Neuroblastoma))	combination Emax (SN12C (Kidney Carcinoma))	combination Emax [11]	combination Emax [12]	combination Emax [13]	combination Emax [14]
NC1(C(=O)N[C@@H](CCO)c2ccc(Cl)cc2)CCN(c2ncnc3[nH]ccc23)CC1 [Capivasertib] + COc1nnc2ccc(N3CCC(c4ccc(OCCN5CCN(C)C(=O)[C@H]5C)cc4)CC3)nn12 [AZD5153] (first compound max 10 µM, 7x7, partner max 1 µM)	0.985	0.478	0.489	0.531	0.958	1	0.406	0.636	0.632	0.912	0.897	0.201	0.523	0.699	0.579	0.152	0.665	0.413	0.789	0.38
C=CCn1c(=O)c2cnc(Nc3ccc(N4CCN(C)CC4)cc3)nc2n1-c1cccc(C(C)(C)O)n1 [AZD1775] + C[C@@H]1COCCN1C2=NC(=NC(=C2)C3(CC3)[S@](=N)(=O)C)C4=C5C=CNC5=NC=C4 [AZD6738] (first compound max 1 µM, partner max 10 µM)	1	0.567	0.839	0.536	0.977	0.983	0.538	0.886	0.414	0.982	0.753	0.507	0.883	1	0.857	0.408	0.794	0.425	0.832	0.707
COc1cccc(OCCCN)c1-c1cc(Nc2cnc(C#N)cn2)n[nH]1 [Prexasertib] + Cc1cc2ncnn2cc1Nc1ncc2c(n1)n(C1CCOCC1)c(=O)n2C [AZD7648] (first compound max 1 µM, 7x7, partner max 10 µM)	1	0.611	0.586	0.692	0.99	0.958	0.508	0.947	0.377	0.984	0.817	0.526	0.808	1	0.915	0.387	0.886	0.489	0.827	0.713
Cc1c2c(nn1C)CSCc1cc(n(C)n1)CSc1cc(c3ccccc3c1)OCCCc1c(C(=O)O)n(C)c3c-2c(Cl)ccc13 [AZD5991] + CCN(CCO)CCCOc1ccc2c(Nc3cc(CC(=O)Nc4cccc(F)c4)[nH]n3)ncnc2c1 [AZD2811] (first compound max 1 µM, 7x7, partner max 1 µM)	1	0.32	0.868	0.256	0.906	0.985	0.338	0.404	0.192	0.803	1	0.116	0.985	0.956	0.335	0.387	0.288	0.204	0.543	0.945
COc1cccc(OCCCN)c1-c1cc(Nc2cnc(C#N)cn2)n[nH]1 [Prexasertib] + CCc1c2c(nc3ccc(O)cc13)-c1cc3c(c(=O)n1C2)COC(=O)[C@]3(O)CC [SN-38] (first compound max 1 µM, 7x7, partner max 0.3 µM)	1	0.649	0.906	0.841	0.982	1	0.893	0.965	0.894	1	0.889	0.562	1	1	0.886	0.76	0.928	0.802	0.852	0.703
CN(CCO)CC[C@H](CSc1ccccc1)Nc1ccc(S(=O)(=O)NC(=O)c2ccc(N3CCC([C@@H](O)c4ccccc4-c4ccc(Cl)cc4)CC3)cc2)cc1S(=O)(=O)C(F)(F)F [AZD4320] + C1CN(CCC1(C(=O)N[C@@H](CCO)C2=CC=C(C=C2)Cl)N)C3=NC=NC4=C3C=CN4 [Capivasertib] (first compound max 1 µM, 7x7, partner max 3 µM)	1	0.292	0.524	0.0708	0.98	0.991	0.256	0.171	0.164	0.773	1	0.128	0.763	0.394	0.228	0.0749	0.3	0.143	0.687	0.577
Cc1cc2ncnn2cc1Nc1ncc2c(n1)n(C1CCOCC1)c(=O)n2C [AZD7648] + CCN(CCO)CCCOc1ccc2c(Nc3cc(CC(=O)Nc4cccc(F)c4)[nH]n3)ncnc2c1 [AZD2811] (first compound max 10 µM, 7x7, partner max 1 µM)	1	0.269	0.335	0.281	0.878	0.783	0.0874	0.454	0.126	0.481	0.554	0.263	0.273	0.952	0.274	0.262	0.295	0.108	0.566	0.331
COc1nnc2ccc(N3CCC(c4ccc(OCCN5CCN(C)C(=O)[C@H]5C)cc4)CC3)nn12 [AZD5153] + C=CCn1c(=O)c2cnc(Nc3ccc(N4CCN(C)CC4)cc3)nc2n1-c1cccc(C(C)(C)O)n1 [AZD1775] (first compound max 1 µM, partner max 1 µM)	1	0.718	0.551	0.506	0.986	1	0.623	0.662	0.486	0.944	0.764	0.473	0.714	0.997	0.641	0.165	0.682	0.426	0.826	0.637
Cn1cnc2c(F)c(Nc3ccc(Br)cc3Cl)c(C(=O)NOCCO)cc21 [Selumetinib] + C=CCn1c(=O)c2cnc(Nc3ccc(N4CCN(C)CC4)cc3)nc2n1-c1cccc(C(C)(C)O)n1 [AZD1775] (first compound max 10 µM, partner max 1 µM)	1	0.777	0.544	0.453	0.92	0.729	0.578	0.742	0.299	0.947	0.849	0.451	0.371	1	0.69	0.241	0.722	0.346	0.637	0.847
CC(=O)c1c(C)c2cnc(Nc3ccc(N4CCNCC4)cn3)nc2n(C2CCCC2)c1=O [Palbociclib] + Cn1cnc2c(F)c(Nc3ccc(Br)cc3Cl)c(C(=O)NOCCO)cc21 [Selumetinib] (first compound max 10 µM, 7x7, partner max 10 µM)	0.833	0.556	0.331	0.411	0.459	0.394	0.919	0.59	0.138	0.587	0.631	0.465	0.306	0.228	0.531	0.283	0.463	0.343	0.429	0.648
Cc1cc2ncnn2cc1Nc1ncc2c(n1)n(C1CCOCC1)c(=O)n2C [AZD7648] + O=C(c1cc(Cc2n[nH]c(=O)c3ccccc23)ccc1F)N1CCN(C(=O)C2CC2)CC1 [Olaparib] (first compound max 10 µM, 7x7, partner max 10 µM)	0.988	0.232	0.252	0.197	0.351	0.413	0.164	0.219	0.351	0.423	0.394	0.145	0.152	0.23	0.213	0.138	0.24	0.157	0.276	0.335
CC1(C)CCC(CN2CCN(c3ccc(C(=O)NS(=O)(=O)c4ccc(NCC5CCOCC5)c([N+](=O)[O-])c4)c(Oc4cnc5[nH]ccc5c4)c3)CC2)=C(c2ccc(Cl)cc2)C1 [Venetoclax] + C[C@@H]1COCCN1C2=NC(=NC(=C2)C3(CC3)[S@](=N)(=O)C)C4=C5C=CNC5=NC=C4 [AZD6738] (first compound max 1 µM, 7x7, partner max 10 µM)	1	0.452	0.605	0.554	0.943	0.877	0.675	0.691	0.483	0.954	0.996	0.462	0.822	0.959	0.766	0.287	0.784	0.325	0.705	0.614
CN(CCO)CC[C@H](CSc1ccccc1)Nc1ccc(S(=O)(=O)NC(=O)c2ccc(N3CCC([C@@H](O)c4ccccc4-c4ccc(Cl)cc4)CC3)cc2)cc1S(=O)(=O)C(F)(F)F [AZD4320] + CCN(CCO)CCCOc1ccc2c(Nc3cc(CC(=O)Nc4cccc(F)c4)[nH]n3)ncnc2c1 [AZD2811] (first compound max 1 µM, 7x7, partner max 1 µM)	1	0.22	0.703	0.115	0.985	0.979	0.926	0.282	0.126	0.827	1	0.0347	0.94	0.913	0.206	0.169	0.196	0.157	0.822	0.718
